Patent publication US11053242B2, “[9,10-dimethoxy-3-(2-methylpropyl)-1H,2H,3H,4H,6H,7H,11BH-pyrido-[2,1-a]isoquinolin-2-yl]methanol and compounds, compositions and methods relating thereto” (Neurocrine Biosciences, Inc., priority 2015, dated 2021)

Columns and labels:
[1] = In vitro human intestinal S9 hydrolysis assay (formation of compound 1-1); settings: human intestinal S9, 1 uM, 37° C., up to 60 minutes
Method: Compounds (1 uM) were incubated with pooled intestinal S9 subcellular preparations (0.5 mg/mL total protein) from SD rats and humans without the addition of protease inhibitor phenylmethylsulfonylflouride. Incubations were carried out in a potassium phosphate buffer (50 mM). All concentrations were relative to the final incubation volume of 125 uL. Incubations were conducted at 37° C. for 0, 5, 10, 20, 40 and 60 minutes in a water bath and terminated by rapid mixing with 150 uL of ice-cold acetonitrile containing 1% formic acid. Internal standard was added and proteins were precipitated and removed by centrifugation prior to LC/MS analysis.

[2] = molecular target: VMAT2 (human platelet homogenate) (Homo sapiens (Human), UniProt Q05940); test: Human VMAT2 Ki, slightly modified competition binding procedure (Table 11); settings: 10 nM 3H-dihydrotetrabenazine;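 also: competition binding with 90 min incubation at 25 °C, after which filter-retained radioligand was measured by scintillation counting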
Chain of VMAT2 (human platelet homogenate) (Q05940 whole entry): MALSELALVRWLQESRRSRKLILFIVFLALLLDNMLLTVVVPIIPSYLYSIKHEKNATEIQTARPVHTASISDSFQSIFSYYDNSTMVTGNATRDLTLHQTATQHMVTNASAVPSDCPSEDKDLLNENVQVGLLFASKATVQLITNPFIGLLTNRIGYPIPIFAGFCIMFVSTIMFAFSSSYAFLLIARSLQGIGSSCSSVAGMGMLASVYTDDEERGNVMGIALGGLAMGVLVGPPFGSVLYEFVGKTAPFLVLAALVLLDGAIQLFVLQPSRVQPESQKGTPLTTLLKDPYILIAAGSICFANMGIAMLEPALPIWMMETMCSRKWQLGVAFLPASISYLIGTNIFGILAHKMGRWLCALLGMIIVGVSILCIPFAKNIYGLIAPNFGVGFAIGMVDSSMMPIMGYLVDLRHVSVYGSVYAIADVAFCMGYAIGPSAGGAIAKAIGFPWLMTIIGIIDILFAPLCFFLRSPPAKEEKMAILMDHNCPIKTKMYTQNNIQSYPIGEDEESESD
Method: Following incubation at 25° C. for 90 minutes, bound radioligand was collected by rapid filtration onto GF/B glass fiber filters using a Unifilter-96 Harvester (PerkinElmer). Filter plates were pre-treated with 0.1% polyethylenimine and allowed to dry overnight, and following harvesting the filter plates were washed with 800 d VMAT2 binding buffer. Bound radioligand was quantified by scintillation counting using a Topcount NXT (PerkinElmer).

Row | S9 Assay (ability to form compound 1-1) [1] | Ki [2] [nM] | Structure (SMILES)
1 | ++ | 10 to 500 | COc1cc2c(cc1OC)[C@H]1C[C@@H](COC(=O)NCC(O)C(=O)O)[C@H](CC(C)C)CN1CC2 (stereo partly drawn) [Compound 5-11, 3-[({[(2R,3S,11bR)-9,10-dimethoxy-3-(2-methylpropyl)-1H,2H,3H,4H,6H,7H,11bH-pyrido[2,1-a]isoquinolin-2-yl]methoxy}carbonyl)amino]-2-hydroxypropanoic acid]
2 | + | < 10 | COc1cc2c(cc1OC)[C@H]1C[C@@H](COC(=O)N3CCNCC3)[C@H](CC(C)C)CN1CC2 [Compound 6-1, [(2R,3S,11bR)-9,10-dimethoxy-3-(2-methylpropyl)-1H,2H,3H,4H,6H,7H,11bH-pyrido[2,1-a]isoquinolin-2-yl]methyl piperazine-1-carboxylate]
3 | ++ | < 10 | COc1cc2c(cc1OC)[C@H]1C[C@@H](COC(=O)CC3CCCN3)[C@H](CC(C)C)CN1CC2 (stereo partly drawn) [Compound 4-28, [(2R,3S,11bR)-9,10-dimethoxy-3-(2-methylpropyl)-1H,2H,3H,4H,6H,7H,11bH-pyrido[2,1-a]isoquinolin-2-yl]methyl 2-(pyrrolidin-2-yl)acetate]
4 | ++ | < 10 | COc1cc2c(cc1OC)[C@H]1C[C@@H](COC(=O)C3(OC)CCNCC3)[C@H](CC(C)C)CN1CC2 [Compound 4-22, [(2R,3S,11bR)-9,10-dimethoxy-3-(2-methylpropyl)-1H,2H,3H,4H,6H,7H,11bH-pyrido[2,1-a]isoquinolin-2-yl]methyl 4-methoxypiperidine-4-carboxylate]
5 | ++ | < 10 | COc1cc2c(cc1OC)[C@H]1C[C@@H](COC(=O)C3CCNCC3)[C@H](CC(C)C)CN1CC2 [Compound 4-1, [(2R,3S,11bR)-9,10-dimethoxy-3-(2-methylpropyl)-1H,2H,3H,4H,6H,7H,11bH-pyrido[2,1-a]isoquinolin-2-yl]methyl piperidine-4-carboxylate]
6 | + | < 10 | COc1cc2c(cc1OC)[C@H]1C[C@@H](COC(=O)CC3CCNC3)[C@H](CC(C)C)CN1CC2 (stereo partly drawn) [Compound 4-16, [(2R,3S,11bR)-9,10-dimethoxy-3-(2-methylpropyl)-1H,2H,3H,4H,6H,7H,11bH-pyrido[2,1-a]isoquinolin-2-yl]methyl 2-(pyrrolidin-3-yl)acetate]
7 | + | > 500 | COc1cc2c(cc1OC)[C@H]1C[C@@H](COC(=O)CC(C)(C)CC(=O)O)[C@H](CC(C)C)CN1CC2 [Compound 3-1, 5-{[(2R,3S,11bR)-9,10-dimethoxy-3-(2-methylpropyl)-1H,2H,3H,4H,6H,7H,11bH-pyrido[2,1-a]isoquinolin-2-yl]methoxy}-3,3-dimethyl-5-oxopentanoic acid]
8 | + | < 10 | COc1cc2c(cc1OC)[C@H]1C[C@@H](COC(=O)N3CCNC[C@@H]3CO)[C@H](CC(C)C)CN1CC2 [Compound 6-7, [(2R,3S,11bR)-9,10-dimethoxy-3-(2-methylpropyl)-1H,2H,3H,4H,6H,7H,11bH-pyrido[2,1-a]isoquinolin-2-yl]methyl (2R)-2-(hydroxymethyl)piperazine-1-carboxylate]
9 | ++ | < 10 | COc1cc2c(cc1OC)[C@H]1C[C@@H](COC(=O)N3CCNC[C@@H]3C)[C@H](CC(C)C)CN1CC2 [Compound 6-5, [(2R,3S,11bR)-9,10-dimethoxy-3-(2-methylpropyl)-1H,2H,3H,4H,6H,7H,11bH-pyrido[2,1-a]isoquinolin-2-yl]methyl (2S)-2-methylpiperazine-1-carboxylate]
10 | + | > 500 | COc1cc2c(cc1OC)[C@H]1C[C@@H](COC(=O)N[C@H]3[C@@H](C(=O)O)[C@H]4C=C[C@@H]3C4)[C@H](CC(C)C)CN1CC2 [Compound 5-9, (1R,2S,3R,4S)-3-[({[(2R,3S,11bR)-9,10-dimethoxy-3-(2-methylpropyl)-1H,2H,3H,4H,6H,7H,11bH-pyrido[2,1-a]isoquinolin-2-yl]methoxy}carbonyl)amino]bicyclo[2.2.1]hept-5-ene-2-carboxylic acid]
11 | + | < 10 | COc1cc2c(cc1OC)[C@H]1C[C@@H](COC(=O)C3CCNCC3C)[C@H](CC(C)C)CN1CC2 (stereo partly drawn) [Compound 4-15, [(2R,3S,11bR)-9,10-dimethoxy-3-(2-methylpropyl)-1H,2H,3H,4H,6H,7H,11bH-pyrido[2,1-a]isoquinolin-2-yl]methyl 3-methylpiperidine-4-carboxylate]
12 | + | 10 to 500 | COc1cc2c(cc1OC)[C@H]1C[C@@H](COC(=O)N(C)[C@H](C)C(=O)O)[C@H](CC(C)C)CN1CC2 [Compound 5-17, (2R)-2-[({[(2R,3S,11bR)-9,10-dimethoxy-3-(2-methylpropyl)-1H,2H,3H,4H,6H,7H,11bH-pyrido[2,1-a]isoquinolin-2-yl]methoxy}carbonyl)(methyl)amino]propanoic acid]
13 | – | 10 to 500 | COc1cc2c(cc1OC)[C@H]1C[C@@H](COC(=O)C(N)c3ccccc3OC)[C@H](CC(C)C)CN1CC2 (stereo partly drawn) [Compound 4-19, [(2R,3S,11bR)-9,10-dimethoxy-3-(2-methylpropyl)-1H,2H,3H,4H,6H,7H,11bH-pyrido[2,1-a]isoquinolin-2-yl]methyl 2-amino-2-(2-methoxyphenyl)acetate]
14 | – | 10 to 500 | COc1cc2c(cc1OC)[C@H]1C[C@@H](COC(=O)C3NCCc4ccccc43)[C@H](CC(C)C)CN1CC2 (stereo partly drawn) [Compound 4-21, [(2R,3S,11bR)-9,10-dimethoxy-3-(2-methylpropyl)-1H,2H,3H,4H,6H,7H,11bH-pyrido[2,1-a]isoquinolin-2-yl]methyl 1,2,3,4-tetrahydroisoquinoline-1-carboxylate]
15 | – | 10 to 500 | COc1cc2c(cc1OC)[C@H]1C[C@@H](COC(=O)N(C)C)[C@H](CC(C)C)CN1CC2 [Compound 5-29, [(2R,3S,11bR)-9,10-dimethoxy-3-(2-methylpropyl)-1H,2H,3H,4H,6H,7H,11bH-pyrido[2,1-a]isoquinolin-2-yl]methyl N,N-dimethylcarbamate]
16 | – | < 10 | COc1cc2c(cc1OC)[C@H]1C[C@@H](COC(=O)CCn3cnnn3)[C@H](CC(C)C)CN1CC2 [Compound 2-13, [(2R,3S,11bR)-9,10-dimethoxy-3-(2-methylpropyl)-1H,2H,3H,4H,6H,7H,11bH-pyrido[2,1-a]isoquinolin-2-yl]methyl 3-(1H-1,2,3,4-tetrazol-1-yl)propanoate]
17 | – | < 10 | COc1cc2c(cc1OC)[C@H]1C[C@@H](COC(=O)[C@@H]3CCCN(Cc4ccccc4)C3)[C@H](CC(C)C)CN1CC2 [Compound 2-11, [(2R,3S,11bR)-9,10-dimethoxy-3-(2-methylpropyl)-1H,2H,3H,4H,6H,7H,11bH-pyrido[2,1-a]isoquinolin-2-yl]methyl (3R)-1-benzylpiperidine-3-carboxylate]
18 | + | – | COc1cc2c(cc1OC)[C@H]1C[C@@H](COC(=O)N3CCNC[C@H]3C)[C@H](CC(C)C)CN1CC2 [Compound 6-3, [(2R,3S,11bR)-9,10-dimethoxy-3-(2-methylpropyl)-1H,2H,3H,4H,6H,7H,11bH-pyrido[2,1-a]isoquinolin-2-yl]methyl (2R)-2-methylpiperazine-1-carboxylate]
19 | – | 10 to 500 | COc1cc2c(cc1OC)[C@H]1C[C@@H](COC(=O)C3CCCN(S(C)(=O)=O)C3)[C@H](CC(C)C)CN1CC2 (stereo partly drawn) [Compound 2-37, [(2R,3S,11bR)-9,10-dimethoxy-3-(2-methylpropyl)-1H,2H,3H,4H,6H,7H,11bH-pyrido[2,1-a]isoquinolin-2-yl]methyl 1-methanesulfonylpiperidine-3-carboxylate]
20 | – | < 10 | COc1cc2c(cc1OC)[C@H]1C[C@@H](COC[C@H]3CCCN3)[C@H](CC(C)C)CN1CC2 [Compound 10-7, (2R)-2-({[(2R,3S,11bR)-9,10-dimethoxy-3-(2-methylpropyl)-1H,2H,3H,4H,6H,7H,11bH-pyrido[2,1-a]isoquinolin-2-yl]methoxy}methyl)pyrrolidine]
21 | – | > 500 | COc1cc2c(cc1OC)[C@H]1C[C@@H](COCC(=O)c3ccc(F)cc3)[C@H](CC(C)C)CN1CC2 [Compound 9-3, 2-{[(2R,3S,11bR)-9,l0-dimethoxy-3-(2-methylpropyl)-1H,2H,3H,4H,6H,7H,11bH-pyrido[2,1-a]isoquinolin-2-yl]methoxy}-1-(4-fluorophenyl)ethan-1-one]
22 | – | 10 to 500 | COc1cc2c(cc1OC)[C@H]1C[C@@H](COC(=O)C(C)(C)C)[C@H](CC(C)C)CN1CC2 [Compound 2-17, [(2R,3S,11bR)-9,10-dimethoxy-3-(2-methylpropyl)-1H,2H,3H,4H,6H,7H,11bH-pyrido[2,1-a]isoquinolin-2-yl]methyl 2,2-dimethylpropanoate]
23 | – | < 10 | COCOC[C@@H]1C[C@@H]2c3cc(OC)c(OC)cc3CCN2C[C@H]1CC(C)C [Compound 9-5, (2R,3S,11bR)-9,10-dimethoxy-2-[(methoxymethoxy)methyl]-3-(2-methylpropyl)-1H,2H,3H,4H,6H,7H,11bH-pyrido[2,1-a]isoquinoline]
24 | – | 10 to 500 | COc1cc2c(cc1OC)[C@H]1C[C@@H](COC(=O)CC(C)(C)n3cccc3)[C@H](CC(C)C)CN1CC2 [Compound 2-28, [(2R,3S,11bR)-9,10-dimethoxy-3-(2-methylpropyl)-1H,2H,3H,4H,6H,7H,11bH-pyrido[2,1-a]isoquinolin-2-yl]methyl 3-methyl-3-(1H-pyrrol-1-yl)butanoate]
25 | – | < 10 | COc1cc2c(cc1OC)[C@H]1C[C@@H](COC(=O)CCC(=O)N(C)C)[C@H](CC(C)C)CN1CC2 [Compound 2-4, [(2R,3S,11bR)-9,10-dimethoxy-3-(2-methylpropyl)-1H,2H,3H,4H,6H,7H,11bH-pyrido[2,1-a]isoquinolin-2-yl]methyl 3-(dimethylcarbamoyl)propanoate]

Row | Structure (SMILES) | S9 Assay (ability to form compound 1-1) [1] | Ki [2] [nM]
26 | COc1cc2c(cc1OC)[C@H]1C[C@@H](COC(=O)[C@@H]3CCCC[C@H]3N)[C@H](CC(C)C)CN1CC2 [Compound 4-4, [(2R,3S,11bR)-9,10-dimethoxy-3-(2-methylpropyl)-1H,2H,3H,4H,6H,7H,11bH-pyrido[2,1-a]isoquinolin-2-yl]methyl (1R,2R)-2-aminocyclohexane-1-carboxylate] | – | < 10
